Experimental data taken from patent publication US9708336B2, “Metallo-beta-lactamase inhibitors” (priority 2014, dated 2017).
Like-named read-outs stand apart in the source and are kept apart here.

How the values were obtained:
[1] = biological target: VIM-1 (Pseudomonas aeruginosa (strain ATCC 15692 / DSM 22644 / CIP 104116 / JCM 14847 / LMG 12228 / 1C / PRS 101 / PAO1), UniProt A0A0F7KYQ8); assay: Enzyme activity: determination of IC50, fluorescence assay with CCF2-FA substrate (VIM-1); type: biochemical
[2] = biological target: NDM-1 (Klebsiella pneumoniae, UniProt C7C422); assay: biochemical; type: biochemical; details: read-out: NDM-1 IC50
NDM-1, sequence (C7C422 whole entry, looked up, species assumed): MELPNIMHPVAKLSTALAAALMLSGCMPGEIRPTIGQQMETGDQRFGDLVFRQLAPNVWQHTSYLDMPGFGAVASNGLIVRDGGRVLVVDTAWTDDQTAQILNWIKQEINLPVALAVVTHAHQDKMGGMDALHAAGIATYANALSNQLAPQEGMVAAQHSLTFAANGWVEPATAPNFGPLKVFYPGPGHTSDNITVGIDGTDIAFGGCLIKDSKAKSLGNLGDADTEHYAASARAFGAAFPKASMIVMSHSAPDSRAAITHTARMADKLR

[3] = biological target: IMP-1 (Serratia marcescens, UniProt P52699); assay: biochemical; type: biochemical; details: read-out: IMP-1 IC50
IMP-1, sequence (P52699 whole entry, looked up): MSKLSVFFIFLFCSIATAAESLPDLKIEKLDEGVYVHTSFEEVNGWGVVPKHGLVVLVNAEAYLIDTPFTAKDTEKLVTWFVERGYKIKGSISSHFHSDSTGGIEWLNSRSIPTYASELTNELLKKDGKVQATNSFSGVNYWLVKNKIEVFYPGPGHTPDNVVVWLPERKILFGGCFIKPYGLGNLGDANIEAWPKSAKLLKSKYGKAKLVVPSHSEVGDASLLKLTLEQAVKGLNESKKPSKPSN

[4] = test system: Serratia marcescens expressing IMP-1 (CL5741); assay: Antibiotic potentiation activity: synergistic concentration (MITC95) with imipenem, OD600 growth; type: cell-based; details: for Serratia marcescens expressing IMP-1 (CL5741) MITC95: concentration giving 95% inhibition of bacterial growth
Method: (§1) Antibiotic Potentiation Activity: Determination of Synergistic Concentration
(§2) The bacterial strains tested included the clinical strains Escherichia coli expressing NDM-1 (CLB30005, CLB30016), Serratia marcescens expressing IMP-1 (CL5741), and Klebsiella pneumoniae expressing VIM-1 (IHMA599644) Inhibitor activity was measured in the presence and absence of imipenem in a 384-well microplate.
(§3) The clinical strains CLB30016, CL5741 and IHMA599644 were grown on trypticase soy agar containing 5% sheep's blood. The clinical strain CLB30005 was grown on Mueller Hinton broth agar containing 8 ug/ml imipenem. The bacteria on agar plates were incubated at 35° C. with humidity overnight. The following day, individual colonies from each clinical strain were picked and resuspended in 5 ml saline to attain an OD600 of 0.14, 0.11, 0.15 and 0.13, for CLB30005, CLB30016, CL5741 and IHMA599644, respectively. These were further diluted 1:100 into 1.1×CAMHB and used to inoculate the test wells as described below.
(§4) Imipenem in 10 mM 3-(N-morpholino)propanesulfonic acid (MOPS, pH 7) was stored in single use aliquots at −80° C. […] On the day of the assay, 4 μl of antibiotic was added to 45 ul of bacteria followed by 1 μl of test compound and mixed by pipetting and with an orbital shaker. The concentration of antibiotic used in the assay was 4 μg/ml, or optionally 1 μg/ml. Microplates were covered and incubated at 35° C. for 22 hours to 24 hours. At the end of the incubation, absorbance was determined using a spectrophotometer.

[5] = test system: Klebsiella pneumoniae expressing VIM-1 (IHMA599644); assay: as above; type: cell-based; details: for Klebsiella pneumoniae expressing VIM-1 (IHMA 599644) MITC95: concentration giving 95% inhibition of bacterial growth
Method: as §1, §2, §3, §4

[6] = test system: Escherichia coli expressing NDM-1 (CLB30016); assay: as above; type: cell-based; details: for Escherichia coli expressing NDM-1 (CLB 30016) MITC95: concentration giving 95% inhibition of bacterial growth
Method: as §1, §2, §3, §4

[7] = fluorescence assay with CCF2-FA substrate
[8] = NDM-1 enzyme, CCF2-FA substrate
[9] = IMP-1 enzyme, CCF2-FA substrate
[10] = Serratia marcescens CL5741 (IMP-1), 95% growth inhibition
[11] = Klebsiella pneumoniae IHMA599644 (VIM-1), 95% growth inhibition
[12] = (CLB30016, NDM-1), 95% growth inhibition
[13] = VIM-1 enzyme, CCF2-FA substrate, read-out: VIM-1 IC50
[14] = fluorescence assay with CCF2-FA substrate, read-out: VIM-1 IC50
[15] = VIM-1 enzyme, CCF2-FA fluorescence assay, read-out: VIM-1 IC50
[16] = NDM-1 enzyme, CCF2-FA fluorescence assay
[17] = IMP-1 enzyme, CCF2-FA fluorescence assay
[18] = Serratia marcescens expressing IMP-1 (CL5741), 95% growth inhibition
[19] = Klebsiella pneumoniae expressing VIM-1 (IHMA599644), 95% growth inhibition
[20] = Escherichia coli expressing NDM-1 (CLB30016), 95% growth inhibition
[21] = CL5741 (IMP-1), 95% inhibition of bacterial growth
[22] = IHMA599644 (VIM-1), 95% inhibition of bacterial growth
[23] = CLB30016 (NDM-1), 95% inhibition of bacterial growth

SMILES | IC50 [2, 8] [nM] | IC50 [3, 9] [nM] | Serratia marcescens MITC95 [4, 10] [µM] | Klebsiella pneumoniae MITC95 [5, 11] [µM] | Escherichia coli MITC95 [6, 12] [µM] | IC50 [1, 15] [nM] | IC50 [2, 16] [nM] | IC50 [3, 17] [nM] | Serratia marcescens MITC95 [4, 18] [µM] | Klebsiella pneumoniae MITC95 [5, 19] [µM] | Escherichia coli MITC95 [6, 20] [µM] | other results
NS(=O)(=O)c1cccc(-c2cccc(CO)c2)c1-c1nnn[nH]1 [Example 119, 3′-(hydroxymethyl)-2-(1H-tetrazol-5-yl)-[1,1′-biphenyl]-3-sulfonamide] | – | – | – | – | – | – | – | – | – | – | – | IC50 ([1]; VIM-1 IC50, fluorescence assay with CCF2-FA substrate): 261 nM; IC50 [2, 7]: 16.2 nM; IC50 [3, 7]: 548 nM; Serratia marcescens expressing IMP-1 (CL5741) MITC95 [4]: 18.75 µM; Klebsiella pneumoniae expressing VIM-1 (IHMA 599644) MITC95 [5]: 50 µM; Escherichia coli expressing NDM-1 (CLB 30016) MITC95 [6]: 1.563 µM
NC[C@H]1CC[C@@H](Cc2ccc(-c3ccc(N)nc3)c(-c3nnn[nH]3)c2S(N)(=O)=O)CC1 [Example 580, 6-(((1s,4s)-4-(aminomethyl)cyclohexyl)methyl)-3-(6-aminopyridin-3-yl)-2-(1H-tetrazol-5-yl)benzenesulfonamide] | 0.869 | 22.7 | 6.25 | 12.5 | 1.563 | – | – | – | – | – | – | IC50 ([1]; VIM-1 IC50, VIM-1 enzyme, CCF2-FA substrate): 13.4 nM
Nc1ncc2c(-c3ccc(C(F)(F)F)c(S(N)(=O)=O)c3-c3nn[nH]n3)cccc2n1 [Example 556, 3-(2-aminoquinazolin-5-yl)-2-(2H-tetrazol-5-yl)-6-(trifluoromethyl)benzenesulfonamide] | 0.125 | 2.97 | 12.5 | 12.5 | 25 | – | – | – | – | – | – | IC50 [1, 13]: 0.122 nM
Nc1nc2cccc(-c3ccc(CC4CCNCC4)c(S(N)(=O)=O)c3-c3nn[nH]n3)c2[nH]1 [Example 612, 3-(2-amino-3H-benzo[d]imidazol-4-yl)-6-(piperidin-4-ylmethyl)-2-(2H-tetrazol-5-yl)benzenesulfonamide] | 1.63 | 65.5 | 2.563 | 1.281 | 0.5 | – | – | – | – | – | – | IC50 [1, 13]: 7.23 nM
NS(=O)(=O)c1nccc(N2CCC(c3cccnc3)CC2)c1-c1nnn[nH]1 [Example 218, 4-(4-pyridin-3-ylpiperidin-1-yl)-3-(1H-tetrazol-5-yl)pyridine-2-sulfonamide] | – | – | – | – | – | – | – | – | – | – | – | IC50 [1, 14]: 106 nM; IC50 [2, 7]: 102 nM; IC50 [3, 7]: 484 nM; Serratia marcescens expressing IMP-1 (CL5741) MITC95 [4]: 25 µM; Klebsiella pneumoniae expressing VIM-1 (IHMA 599644) MITC95 [5]: 100 µM; Escherichia coli expressing NDM-1 (CLB 30016) MITC95 [6]: 12.5 µM
CN1CCN(Cc2ccc(-c3cccc(S(N)(=O)=O)c3-c3nnn[nH]3)cc2)CC1 [Example 329, 4′-((4-methylpiperazin-1-yl)methyl)-2-(1H-tetrazol-5-yl)-[1,1′-biphenyl]-3-sulfonamide] | – | – | – | – | – | 683 | 8.26 | 87.1 | 1.563 | 200 | 0.7813 | –
Nc1nc2ccc(-c3ccc(CC4CCNCC4)c(S(N)(=O)=O)c3-c3nn[nH]n3)cc2[nH]1 [Example 610, 3-(2-amino-3H-benzo[d]imidazol-5-yl)-6-(piperidin-4-ylmethyl)-2-(2H-tetrazol-5-yl)benzenesulfonamide] | 2.92 | 114 | 3.125 | 1.563 | 0.3906 | – | – | – | – | – | – | IC50 [1, 13]: 6.39 nM
NS(=O)(=O)c1c(C(F)(F)F)ccc(-c2ccc(C3CNCCO3)cc2)c1-c1nnn[nH]1 (stereo not drawn) [Example 713, 4′-morpholin-2-yl-2-(1H-tetrazol-5-yl)-4-(trifluoromethyl)biphenyl-3-sulfonamide] | 3.27 | 3.54 | 6.25 | 3.125 | 3.125 | – | – | – | – | – | – | IC50 [1, 13]: 0.819 nM
NS(=O)(=O)c1c(CCC2CNC2)ccc(-c2ccc(C3CCNCC3)cc2)c1-c1nn[nH]n1 [Example 466, 4-(2-(azetidin-3-yl)ethyl)-4′-(piperidin-4-yl)-2-(2H-tetrazol-5-yl)-[1,1′-biphenyl]-3-sulfonamide] | – | – | – | – | – | 3.72 | 10.5 | 54.6 | 1.563 | 1.563 | 0.7813 | –
N=C(N)NCc1ccc(-c2ccc(C(F)(F)F)c(S(N)(=O)=O)c2-c2nn[nH]n2)cc1 [Example 440, 4′-(guanidinomethyl)-2-(2H-tetrazol-5-yl)-4-(trifluoromethyl)-[1,1′-biphenyl]-3-sulfonamide] | – | – | – | – | – | 0.357 | 3.91 | 3.37 | 0.0625 | 0.7656 | 0.25 | –
NCCCCN1CC(c2ccc(-c3ccc(C(F)(F)F)c(S(N)(=O)=O)c3-c3nnn[nH]3)cc2)C1 [Example 817, 4′-[1-(4-aminobutyl)azetidin-3-yl]-2-(1H-tetrazol-5-yl)-4-(trifluoromethyl)biphenyl-3-sulfonamide] | – | – | – | – | – | – | – | – | – | – | – | IC50 [1, 14]: 9.5 nM; IC50 [2, 7]: 4.46 nM; IC50 [3, 7]: 15 nM; Serratia marcescens MITC95 [4, 21]: 6.25 µM; Klebsiella pneumoniae MITC95 [5, 22]: 12.5 µM; Escherichia coli MITC95 [6, 23]: 1.563 µM
NS(=O)(=O)c1cccc(-c2ccc(CN3CC(F)(F)C3)cc2)c1-c1nnn[nH]1 [Example 372, 4′-[(3,3-difluoroazetidin-1-yl)methyl]-2-(1H-tetrazol-5-yl)biphenyl-3-sulfonamide] | – | – | – | – | – | 470 | 4.91 | 15.7 | 1.563 | >200 | 7.813 | –
NS(=O)(=O)c1cccc(-c2cnc3ccccc3c2)c1-c1nnn[nH]1 [Example 165, 3-(quinolin-3-yl)-2-(1H-tetrazol-5-yl)benzenesulfonamide] | – | – | – | – | – | – | – | – | – | – | – | IC50 [1, 14]: 11.6 nM; IC50 [2, 7]: 1.24 nM; IC50 [3, 7]: 214 nM; Serratia marcescens expressing IMP-1 (CL5741) MITC95 [4]: 9.375 µM; Klebsiella pneumoniae expressing VIM-1 (IHMA 599644) MITC95 [5]: 37.5 µM; Escherichia coli expressing NDM-1 (CLB 30016) MITC95 [6]: 0.5859 µM
NS(=O)(=O)c1cccc(-c2ccc(CNCc3nn[nH]n3)cc2)c1-c1nnn[nH]1 [Example 381, 2-(1H-tetrazol-5-yl)-4′-{[(2H-tetrazol-5-ylmethyl)amino]methyl}biphenyl-3-sulfonamide] | – | – | – | – | – | 357 | 2.25 | 25.4 | 0.7813 | 50 | 1.563 | –
NC1CCC2CN(c3ccc(C(F)(F)F)c(S(N)(=O)=O)c3-c3nnn[nH]3)CC2C1 (stereo not drawn) [Example 767, 3-(5-aminooctahydro-2H-isoindol-2-yl)-2-(1H-tetrazol-5-yl)-6-(trifluoromethyl) benzenesulfonamide] | – | – | – | – | – | – | – | – | – | – | – | IC50 [1, 14]: 4.58 nM; IC50 [2, 7]: 208 nM; IC50 [3, 7]: 223 nM; Serratia marcescens MITC95 [4, 21]: 50 µM; Klebsiella pneumoniae MITC95 [5, 22]: 12.5 µM; Escherichia coli MITC95 [6, 23]: 200 µM
NS(=O)(=O)c1c(C(F)(F)F)ccc(-c2ccc(C3CCN(CC4CCCCN4)CC3)cc2)c1-c1nnn[nH]1 (stereo not drawn) [Example 676, 4′-[1-(piperidin-2-ylmethyl)piperidin-4-yl]-2-(1H-tetrazol-5-yl)-4-(trifluoromethyl)biphenyl-3-sulfonamide] | 5.59 | 1.26 | 6.25 | >200 | 12.5 | – | – | – | – | – | – | IC50 [1, 13]: 9.1 nM
Nc1nc2c(-c3ccc(C(F)(F)F)c(S(N)(=O)=O)c3-c3nnn[nH]3)cccc2s1 [Example 423, 3-(2-amino-1,3-benzothiazol-4-yl)-2-(2H-tetrazol-5-yl)-6-(trifluoromethyl)benzenesulfonamide] | – | – | – | – | – | 0.711 | 0.378 | 1.29 | 0.125 | 3.125 | 1.086 | –
